# In PubChem BioAssay AID180 (DTP/NCI, 2004):
# Several values for one entry are separate records, joined by “and”; a condition that tells them apart may be missing. Identical values can stand only once.
# Test system: BDF1 mice, Adenocarcinoma 755 s.c., tumor weight T/C
# Test: NCI In Vivo Anticancer Drug Screen. Data for tumor model Adenocarcinoma 755 (subcutaneous) in B6D2F1 (BDF1) mice
# Settings: endpoint: mean tumor weight, higher = larger tumour
# Method in brief: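 Readout: T/C, i.e. treated-group measurement over vehicle-control measurement. Endpoint is survival or tumor size in tumor-bearing mice given compound.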
compound,measurement,setting,value
CS(=O)(=O)OCCCCOS(C)(=O)=O,T/C,"dose: 3.75 mg/kg/injection, schedule: Q03DX004 (ip), vehicle: saline",111 % of control
same,T/C,"dose: 5.0 mg/kg/injection, schedule: Q#A X022 (ip), vehicle: saline",54 % of control
same,T/C,"dose: 6.63 mg/kg/injection, schedule: Q01DX011 (ip), vehicle: carboxymethylcellulose (CMC)",95 % of control
same,T/C,"dose: 6.66 mg/kg/injection, schedule: Q01DX011 (ip), vehicle: carboxymethylcellulose (CMC)",99 % of control
same,T/C,"dose: 9.36 mg/kg/injection, schedule: Q01DX011 (ip), vehicle: carboxymethylcellulose (CMC)",66 % of control
same,T/C,"dose: 10.0 mg/kg/injection, schedule: Q01DX006 (iv), vehicle: saline",117 % of control
same,T/C,"dose: 10.0 mg/kg/injection, schedule: Q01DX011 (im), vehicle: saline",36 % of control
same,T/C,"dose: 10.0 mg/kg/injection, schedule: Q01DX011 (ip), vehicle: carboxymethylcellulose (CMC)",62 % of control
same,T/C,"dose: 10.0 mg/kg/injection, schedule: Q01DX011 (ip), vehicle: saline",71 % of control
same,T/C,"dose: 10.0 mg/kg/injection, schedule: Q01DX011 (oral), vehicle: saline",81 % of control
same,T/C,"dose: 10.0 mg/kg/injection, schedule: Q01DX011 (sc), vehicle: saline",35 % of control
same,T/C,"dose: 10.0 mg/kg/injection, schedule: Q#A X022 (ip), vehicle: saline",80 % of control
same,T/C,"dose: 12.5 mg/kg/injection, schedule: Q01DX011 (ip), vehicle: methylcellulose (MC)",119 % of control
same,T/C,"dose: 13.25 mg/kg/injection, schedule: Q01DX011 (ip), vehicle: carboxymethylcellulose (CMC)",101 % of control
same,T/C,"dose: 15.0 mg/kg/injection, schedule: Q03DX004 (ip), vehicle: saline",87 % of control
same,T/C,"dose: 16.75 mg/kg/injection, schedule: Q01DX011 (ip), vehicle: carboxymethylcellulose (CMC)",68 % of control
same,T/C,"dose: 17.5 mg/kg/injection, schedule: Q01DX011 (ip), vehicle: carboxymethylcellulose (CMC)",106 % of control
same,T/C,"dose: 17.87 mg/kg/injection, schedule: Q01DX011 (ip), vehicle: carboxymethylcellulose (CMC)",77 % of control
same,T/C,"dose: 18.73 mg/kg/injection, schedule: Q01DX011 (ip), vehicle: carboxymethylcellulose (CMC)",76 % of control
same,T/C,"dose: 20.0 mg/kg/injection, schedule: Q01DX006 (iv), vehicle: saline",100 % of control
same,T/C,"dose: 20.0 mg/kg/injection, schedule: Q01DX011 (im), vehicle: saline",76 % of control
same,T/C,"dose: 20.0 mg/kg/injection, schedule: Q01DX011 (ip), vehicle: carboxymethylcellulose (CMC)",76 % of control
same,T/C,"dose: 20.0 mg/kg/injection, schedule: Q01DX011 (oral), vehicle: saline",49 % of control
same,T/C,"dose: 20.0 mg/kg/injection, schedule: Q01DX011 (sc), vehicle: saline",104 % of control
same,T/C,"dose: 20.0 mg/kg/injection, schedule: Q#A X022 (ip), vehicle: saline",39 % of control
same,T/C,"dose: 21.2 mg/kg/injection, schedule: Q01DX011 (ip), vehicle: carboxymethylcellulose (CMC)",91 % of control
same,T/C,"dose: 21.32 mg/kg/injection, schedule: Q01DX011 (ip), vehicle: carboxymethylcellulose (CMC)",81 % of control
same,T/C,"dose: 25.0 mg/kg/injection, schedule: Q01DX011 (ip), vehicle: methylcellulose (MC)",77 % of control
same,T/C,"dose: 26.5 mg/kg/injection, schedule: Q01DX011 (ip), vehicle: carboxymethylcellulose (CMC)",26 % of control and 50 % of control
same,T/C,"dose: 26.65 mg/kg/injection, schedule: Q01DX011 (ip), vehicle: carboxymethylcellulose (CMC)",53 % of control and 63 % of control
same,T/C,"dose: 33.5 mg/kg/injection, schedule: Q01DX011 (ip), vehicle: carboxymethylcellulose (CMC)",83 % of control
same,T/C,"dose: 35.0 mg/kg/injection, schedule: Q01DX011 (ip), vehicle: carboxymethylcellulose (CMC)",98 % of control
same,T/C,"dose: 35.33 mg/kg/injection, schedule: Q01DX011 (ip), vehicle: carboxymethylcellulose (CMC)",34 % of control
same,T/C,"dose: 35.5 mg/kg/injection, schedule: Q01DX011 (ip), vehicle: carboxymethylcellulose (CMC)",38 % of control
same,T/C,"dose: 35.75 mg/kg/injection, schedule: Q01DX011 (ip), vehicle: carboxymethylcellulose (CMC)",81 % of control
same,T/C,"dose: 37.45 mg/kg/injection, schedule: Q01DX011 (ip), vehicle: carboxymethylcellulose (CMC)",73 % of control
same,T/C,"dose: 40.0 mg/kg/injection, schedule: Q01DX006 (iv), vehicle: saline",84 % of control
same,T/C,"dose: 40.0 mg/kg/injection, schedule: Q01DX011 (im), vehicle: saline",17 % of control
same,T/C,"dose: 40.0 mg/kg/injection, schedule: Q01DX011 (ip), vehicle: carboxymethylcellulose (CMC)",10 % of control
same,T/C,"dose: 40.0 mg/kg/injection, schedule: Q01DX011 (oral), vehicle: saline",30 % of control and 49 % of control
same,T/C,"dose: 40.0 mg/kg/injection, schedule: Q01DX011 (sc), vehicle: saline",41 % of control and 45 % of control
same,T/C,"dose: 40.0 mg/kg/injection, schedule: Q#A X022 (ip), vehicle: saline",17 % of control
same,T/C,"dose: 50.0 mg/kg/injection, schedule: Q01DX011 (ip), vehicle: methylcellulose (MC)",30 % of control
same,T/C,"dose: 53.0 mg/kg/injection, schedule: Q01DX011 (ip), vehicle: carboxymethylcellulose (CMC)",3 % of control
same,T/C,"dose: 53.3 mg/kg/injection, schedule: Q01DX011 (ip), vehicle: carboxymethylcellulose (CMC)",1 % of control
same,T/C,"dose: 57.96 mg/kg/injection, schedule: Q01DX011 (ip), vehicle: carboxymethylcellulose (CMC)",113 % of control
same,T/C,"dose: 60.0 mg/kg/injection, schedule: Q03DX004 (ip), vehicle: saline",67 % of control and 71 % of control
same,T/C,"dose: 67.0 mg/kg/injection, schedule: Q01DX011 (ip), vehicle: carboxymethylcellulose (CMC)",37 % of control
same,T/C,"dose: 70.0 mg/kg/injection, schedule: Q01DX001 (ip), vehicle: saline",90 % of control
same,T/C,"dose: 70.0 mg/kg/injection, schedule: Q01DX011 (ip), vehicle: carboxymethylcellulose (CMC)",49 % of control
same,T/C,"dose: 70.0 mg/kg/injection, schedule: Q07DX002 (ip), vehicle: saline",99 % of control
same,T/C,"dose: 71.5 mg/kg/injection, schedule: Q01DX011 (ip), vehicle: carboxymethylcellulose (CMC)",58 % of control
same,T/C,"dose: 72.45 mg/kg/injection, schedule: Q01DX011 (ip), vehicle: carboxymethylcellulose (CMC)",29 % of control
same,T/C,"dose: 80.0 mg/kg/injection, schedule: Q01DX006 (iv), vehicle: saline",88 % of control
same,T/C,"dose: 80.0 mg/kg/injection, schedule: Q01DX011 (oral), vehicle: saline",17 % of control and 27 % of control
same,T/C,"dose: 96.6 mg/kg/injection, schedule: Q01DX011 (ip), vehicle: carboxymethylcellulose (CMC)",19 % of control
same,T/C,"dose: 120.0 mg/kg/injection, schedule: Q03DX004 (ip), vehicle: saline",39 % of control and 62 % of control
same,T/C,"dose: 140.0 mg/kg/injection, schedule: Q01DX001 (ip), vehicle: saline",98 % of control and 111 % of control
same,T/C,"dose: 140.0 mg/kg/injection, schedule: Q07DX002 (ip), vehicle: saline",91 % of control
same,T/C,"dose: 160.0 mg/kg/injection, schedule: Q01DX011 (ip), vehicle: saline",14 % of control
same,T/C,"dose: 160.0 mg/kg/injection, schedule: Q01DX011 (oral), vehicle: saline",41 % of control
same,T/C,"dose: 240.0 mg/kg/injection, schedule: Q03DX004 (ip), vehicle: saline",24 % of control and 38 % of control
same,T/C,"dose: 280.0 mg/kg/injection, schedule: Q07DX002 (ip), vehicle: saline",77 % of control
same,T/C,"dose: 320.0 mg/kg/injection, schedule: Q01DX011 (oral), vehicle: saline",9 % of control
same,T/C,"dose: 1120.0 mg/kg/injection, schedule: Q01DX001 (ip), vehicle: saline",58 % of control
Cc1cnc(SCc2ccc(Cl)cc2)[nH]c1=O,T/C,"dose: 15.0 mg/kg/injection, schedule: Q01DX011 (ip), vehicle: methylcellulose (MC)",74 % of control
same,T/C,"dose: 31.0 mg/kg/injection, schedule: Q01DX011 (ip), vehicle: methylcellulose (MC)",84 % of control
same,T/C,"dose: 62.0 mg/kg/injection, schedule: Q01DX011 (ip), vehicle: methylcellulose (MC)",57 % of control
same,T/C,"dose: 125.0 mg/kg/injection, schedule: Q01DX011 (ip), vehicle: methylcellulose (MC)",49 % of control
same,T/C,"dose: 250.0 mg/kg/injection, schedule: Q01DX011 (ip), vehicle: methylcellulose (MC)",81 % of control
O=C(/C=C/C(=O)c1ccccc1)c1ccccc1,T/C,"dose: 65.0 mg/kg/injection, schedule: Q01DX011 (ip), vehicle: other",76 % of control
same,T/C,"dose: 90.0 mg/kg/injection, schedule: Q01DX011 (ip), vehicle: other",59 % of control
same,T/C,"dose: 125.0 mg/kg/injection, schedule: Q01DX011 (ip), vehicle: other",51 % of control
CC(C)C(=O)OCC1OC(n2cnc3c(=S)nc(N)[nH]c32)C(OC(=O)C(C)C)C1OC(=O)C(C)C (stereo not given),T/C,"dose: 1.5 mg/kg/injection, schedule: Q01DX011 (ip), vehicle: carboxymethylcellulose (CMC)",76 % of control and 79 % of control
same,T/C,"dose: 3.0 mg/kg/injection, schedule: Q01DX011 (ip), vehicle: carboxymethylcellulose (CMC)",43 % of control
same,T/C,"dose: 6.0 mg/kg/injection, schedule: Q01DX011 (ip), vehicle: carboxymethylcellulose (CMC)",25 % of control
same,T/C,"dose: 12.0 mg/kg/injection, schedule: Q01DX011 (ip), vehicle: carboxymethylcellulose (CMC)",18 % of control
CC(=O)OCC(=O)C1(O)CCC2C3CCC4=CC(=O)CCC4(C)C34OC4CC21C (stereo not given),T/C,"dose: 25.0 mg/kg/injection, schedule: Q01DX011 (sc), vehicle: steriod suspending solution",87 % of control
same,T/C,"dose: 200.0 mg/kg/injection, schedule: Q01DX011 (sc), vehicle: steriod suspending solution",44 % of control
same,T/C,"dose: 450.0 mg/kg/injection, schedule: Q01DX011 (sc), vehicle: steriod suspending solution",17 % of control
